Test results as given in patent US20250092065A1, “2-(INDAZOL-5-YL)-6-(PIPERIDIN-4-YL)-1,7-NAPHTHYRIDINE DERIVATIVES AND RELATED COMPOUNDS AS MODULATORS FOR SPLICING NUCLEIC ACIDS AND FOR THE TREATMENT OF PROLIFERATIVE DISEASES” (REMIX THERAPEUTICS INC., priority 2022, published 2025).
Like-named read-outs stand apart in the source and are kept apart here.

What was measured:
MYB mRNA = assay: RT-qPCR splicing assay, MYB mRNA canonical (CJ) and alternative (AJ) junction; type: cell-based, human; conditions: Homo sapiens
How it was run: (§1)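 Both isoforms, CJ and AJ, read by qPCR from crude lysates of treated A673 or K562 cells; 24 h, 37 °C, maximum 10 uM. Normalization: housekeeper ΔCt, then DMSO ΔΔCt.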

HTT mRNA = assay: RT-qPCR splicing assay, HTT mRNA canonical (CJ) and alternative (AJ) junction; type: cell-based, human; conditions: Homo sapiens
How it was run: as §1

SMN2 mRNA = assay: RT-qPCR splicing assay, SMN2 mRNA; type: cell-based, human; conditions: Homo sapiens, canonical junction qPCR panel, Table 4; read-out: SMN2 IC50 (decrease in CJ mRNA levels)
How it was run: as §1

Target C = assay: RT-qPCR canonical junction panel assay, Target C mRNA; type: cell-based; conditions: Table 4, read-out: Target C IC50 (decrease in CJ mRNA levels)
Description: Compounds described herein were used to modulate RNA transcript abundance in cells. The expression of a target mRNA was measured by detecting the formation of an exon-exon junction in the canonical transcript (CJ). A compound mediated exon-inclusion event was detected by observing an increase in formation of a new junction with an alternative exon (AJ). Real-time qPCR assays were used to detect these splicing switches and interrogate the potency of various compounds towards different target genes. A high-throughput real time quantitative PCR (RT-qPCR) assay was developed to measure these two isoforms of the mRNA (CJ and AJ) for exemplary genes, such as HTT, SMN2, and MYB, together with a control housekeeping gene, GAPDH or GUSB or PPIA, used for normalization. Briefly, the A673 or K562 cell line was treated with various compounds described herein (e.g., compounds of Formula (I)). After treatment, the levels of the HTT, MYB, or SMN2 mRNA targets were determined from each sample of cell lysate by cDNA synthesis followed by qPCR.
The data analysis was performed by first determining the ΔCt vs the housekeeper gene. This ΔCt was then normalized against the DMSO control (ΔΔCt) and converted to RQ (relative quantification) using the 2^(−ΔΔCt) equation. The RQ were then converted to a percentage response by arbitrarily setting an assay window of 3.5 and 4.0 ΔCt for HTT-CJ and MYB-CJ respectively and an assay window of 9 and 3 ΔCt for HTT-AJ and MYB-AJ in 96 well format (50,000 K562 cells/well and 15,000 A673 cells per well) and an assay window of 3 and 4 ΔCt for HTT-CJ and MYB-CJ respectively and an assay window of 5 and 3 ΔCt for HTT-AJ and MYB-AJ respectively in 384 well format (8,000 K562 cells/well example). […] The percentage response was then fitted to the 4 parametric logistic equation to evaluate the concentration dependence of compound treatment. The increase in AJ mRNA is reported as AC50 (compound concentration having 50% response in AJ increase) while the decrease in CJ mRNA levels is reported as IC50 (compound concentration having […] in CJ decrease).
Additional studies were carried out for a larger panel of genes using the protocol provided above. The junction between flanking upstream and downstream exons was used to design canonical junction Qpcr assays. At least one of the forward primer, reverse primer or the CY5-labeled 5′ nuclease probe (with 3′ quencher such as ZEN/Iowa Black FQ) was designed to overlap with the exon junction to capture the CJ Mrna transcript. BLAST was used to confirm the specificity of the probeset and parameters suCH As melting temperature, GC content, amplicon size, and primer dimer formation are considered during their design. Data for the decrease in CJ Mrna levels for four exemplary genes (HTT, SMN2, MYB, and Target C) analyzed in this panel are reported as IC50 (compound concentration having […] in CJ decrease).

K562 cells = assay: Cell Titer Glo 2.0 cell viability (toxicity) assay, K562; conditions: 500 cells/well, 72 hours
[1] = MYB alternative junction mRNA, RT-qPCR, read-out: MYB AJ (increase in AJ mRNA, AC50)
[2] = MYB canonical junction mRNA, RT-qPCR, read-out: MYB CJ (decrease in CJ mRNA levels, IC50)
[3] = canonical junction qPCR panel, Table 4, read-out: MYB IC50 (decrease in CJ mRNA levels)
[4] = HTT alternative junction mRNA, RT-qPCR, read-out: HTT AJ (increase in AJ mRNA, AC50)
[5] = HTT canonical junction mRNA, RT-qPCR, read-out: HTT CJ (decrease in CJ mRNA levels, IC50)
[6] = canonical junction qPCR panel, Table 4, read-out: HTT IC50 (decrease in CJ mRNA levels)
[7] = RT-qPCR, MYB alternative junction mRNA increase, read-out: MYB AJ (increase in alternative junction mRNA, AC50)
[8] = RT-qPCR, MYB canonical junction mRNA decrease, read-out: MYB CJ (decrease in canonical junction mRNA, IC50)
[9] = RT-qPCR, HTT alternative junction mRNA increase, read-out: HTT AJ (increase in alternative junction mRNA, AC50)
[10] = RT-qPCR, HTT canonical junction mRNA decrease, read-out: HTT CJ (decrease in canonical junction mRNA, IC50)

Compound | AC50 (MYB mRNA; [1]) | IC50 (MYB mRNA; [2]) | IC50 (MYB mRNA; [3]) | AC50 (HTT mRNA; [4]) | IC50 (HTT mRNA; [5]) | IC50 (HTT mRNA; [6]) | IC50 (SMN2 mRNA) | IC50 (Target C) | AC50 (MYB mRNA; [7]) | IC50 (MYB mRNA; [8]) | AC50 (HTT mRNA; [9]) | IC50 (HTT mRNA; [10]) | Effect of Exemplary Compounds on Cell Viability, K562 (K562 cells)
Cc1nc2c(F)c(O)c(-c3ccc4nc(N5CC[C@@H](NC6(CF)CC6)C5)ccc4n3)cc2o1 (single isomer, unassigned) [Compound 372] | < 100 nM | < 100 nM | < 100 nM | < 100 nM | < 100 nM | < 100 nM | < 100 nM | < 100 nM | – | – | – | – | –
C[C@H]1CN(c2cc(F)c3nc(-c4cc(F)c5nn(C)cc5c4)ccc3c2)CCN1 (single isomer, unassigned) [Compound 789] | – | – | < 100 nM | – | – | 100 to 1000 nM | < 100 nM | 100 to 1000 nM | < 100 nM | < 100 nM | 100 to 1000 nM | 100 to 1000 nM | B (B represents 100-1000 nM)
CCc1nc2cc(O)c(-c3ccc4nc(N5CC[C@@H](NC(C)(C)C)C5)ccc4n3)cc2o1 (single isomer, unassigned) [Compound 808] | – | – | 1000 to 10000 nM | – | – | 1000 to 10000 nM | 100 to 1000 nM | 1000 to 10000 nM | 1000 to 10000 nM | 1000 to 10000 nM | 1000 to 10000 nM | 1000 to 10000 nM | C (C represents 1000-9999 nM)
CCc1nc2cc(O)c(-c3ccc4nc(N5CC[C@H](NC(C)(C)C)C5)ccc4n3)cc2o1 (single isomer, unassigned) [Compound 809] | – | – | 1000 to 10000 nM | – | – | 1000 to 10000 nM | 1000 to 10000 nM | 1000 to 10000 nM | 1000 to 10000 nM | 1000 to 10000 nM | 1000 to 10000 nM | 1000 to 10000 nM | C (C represents 1000-9999 nM)
Cc1c(O)c(-c2ncc3cc(N4C[C@H](C)NC5(CC5)C4)ccc3n2)cc2cn(C)nc12 (single isomer, unassigned) [Compound 810] | – | – | 100 to 1000 nM | – | – | 1000 to 10000 nM | < 100 nM | 1000 to 10000 nM | 100 to 1000 nM | 100 to 1000 nM | 1000 to 10000 nM | 1000 to 10000 nM | B (B represents 100-1000 nM)
Cc1c(O)c(-c2ncc3cc(N4C[C@@H](C)NC5(CC5)C4)ccc3n2)cc2cn(C)nc12 (single isomer, unassigned) [Compound 811] | – | – | < 100 nM | – | – | 1000 to 10000 nM | < 100 nM | > 10000 nM | < 100 nM | < 100 nM | 1000 to 10000 nM | 1000 to 10000 nM | B (B represents 100-1000 nM)
Cc1nc2c(F)c(O)c(-c3ccc4nc(N5CCC(NCC6CC6)C5)ccc4n3)cc2o1 (stereo not shown) [Cmpd 294] | < 100 nM | < 100 nM | < 100 nM | < 100 nM | < 100 nM | < 100 nM | < 100 nM | < 100 nM | – | – | – | – | –
Cc1nc2c(C)c(O)c(-c3ccc4nc(N5CC[C@@H](NC(C)C)C5)ncc4n3)cc2o1 [Cmpd 415] | < 100 nM | < 100 nM | < 100 nM | < 100 nM | < 100 nM | < 100 nM | < 100 nM | < 100 nM | – | – | – | – | –
CN(c1ccc2nc(-c3cc4cn(C)nc4cc3O)ccc2n1)C1CC(C)(C)N(C)C(C)(C)C1 [Compound 130] | > 10000 nM | > 10000 nM | > 10000 nM | > 10000 nM | > 10000 nM | > 10000 nM | 100 to 1000 nM | > 10000 nM | – | – | – | – | –
COc1cc2nc(C3CCNCC3)ccc2nc1-c1cc2c(C)nc(C)cn2n1 [Compound 343, 2-{4,6-dimethylpyrazolo[1,5-a]pyrazin-2-yl}-3-methoxy-6-(piperidin-4-yl)-1,5-naphthyridine] | 1000 to 10000 nM | 1000 to 10000 nM | 1000 to 10000 nM | 1000 to 10000 nM | 1000 to 10000 nM | 1000 to 10000 nM | < 100 nM | > 10000 nM | – | – | – | – | –
Cn1cc2cc(-c3ncc4cc(N5CCC(N6CCC6)CC5)ccc4n3)c(O)cc2n1 [Compound 801, 5-{6-[4-(azetidin-1-yl)piperidin-1-yl]quinazolin-2-yl}-2-methylindazol-6-ol] | – | – | 100 to 1000 nM | – | – | 1000 to 10000 nM | – | 1000 to 10000 nM | 1000 to 10000 nM | 100 to 1000 nM | 1000 to 10000 nM | 1000 to 10000 nM | B (B represents 100-1000 nM)
C[C@H]1CN(c2ccc3nc(-c4cc(F)c5nn(C)cc5c4)ncc3c2)C[C@H](C)N1 [Compound 802, 6-[(3S,5S)-3,5-dimethylpiperazin-1-yl]-2-(7-fluoro-2-methylindazol-5-yl)quinazoline] | – | – | 100 to 1000 nM | – | – | 100 to 1000 nM | – | 100 to 1000 nM | 100 to 1000 nM | 100 to 1000 nM | 100 to 1000 nM | 100 to 1000 nM | B (B represents 100-1000 nM)
Cc1cn2nc(-c3ccc4cc(N5CCNC6(CC6)C5)cc(F)c4n3)cc(C)c2n1 [Compound 804, 6-{4,7-diazaspiro[2.5]octan-7-yl}-2-{2,8-dimethylimidazo[1,2-b]pyridazin-6-yl}-8-fluoroquinoline] | – | – | 100 to 1000 nM | – | – | 100 to 1000 nM | – | 100 to 1000 nM | 100 to 1000 nM | 100 to 1000 nM | 100 to 1000 nM | 100 to 1000 nM | B (B represents 100-1000 nM)
